Results from the supplement of paper PMC10307832.

Assays:
Test in all cases: relative viability (nuclei count vs DMSO), 5 days (fraction); higher = more cells survive
[1] = compound: N=C1NC(=O)/C(=C/c2ccc(O)cc2)S1 [Mirin]
Method in brief: (§1)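 Vehicle-anchored 1536-well plates of lung cancer cell lines, held overnight at 37 °C, were pinned with five library-drug doses (not always all listed) spaced by √10. No medium change followed over the next 5 days, after which the cells were fixed, permeabilised and Hoechst-stained together and imaged at 4×. Nuclei were counted with MetaXpress, and viability is treated-well nuclei over vehicle-well nuclei, taken as a median across plates. Plates passed with control CV below 25% and at least one doubling.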

[2] = compound: CCC1=CN=CN=C1N2CCN(CC2)CC3=NC4=C(N3)C=C(C=C4)C(F)(F)F
Method in brief: as §1

[3] = compound: CCn1c(-c2nonc2N)nc2cnc(Oc3cccc(NC(=O)c4ccc(OCCN5CCOCC5)cc4)c3)cc21
Method in brief: as §1

[4] = compound: CCC1=CN=CN=C1N2CCN(CC2)CC3=NC4=C(N3)C=C(C=C4)C(F)(F)F + CC(=O)Nc1cccc(-n2c(=O)n(C3CC3)c(=O)c3c(Nc4ccc(I)cc4F)n(C)c(=O)c(C)c32)c1 [Trametinib] (partner 0.02 µM)
Method in brief: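 Five library-drug doses in √10 steps were combined with a fixed anchor-drug dose, or a single drug was given alone, by pin tool to lung cancer cell lines in 1536-well plates the day after seeding. Nuclei were stained and counted after 5 days. Relative viability is the nuclei count in treated wells over that in vehicle wells, taken as the median of duplicate plates.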

| Cell Line | relative viability ([1]; 0.25 µM) | relative viability ([1]; 0.7906 µM) | relative viability ([1]; 2.5 µM) | relative viability ([1]; 7.906 µM) | relative viability ([1]; 25 µM) | relative viability ([2]; 0.04 µM) | relative viability ([2]; 0.1265 µM) | relative viability ([2]; 0.4 µM) | relative viability ([2]; 1.265 µM) | relative viability ([2]; 4 µM) | relative viability ([3]; 0.04 µM) | relative viability ([3]; 0.1265 µM) | relative viability ([3]; 0.4 µM) | relative viability ([3]; 1.265 µM) | relative viability ([3]; 4 µM) | relative viability ([4]; first compound 0.04 µM) | relative viability ([4]; first compound 0.1265 µM) | relative viability ([4]; first compound 0.4 µM) | relative viability ([4]; first compound 1.265 µM) | relative viability ([4]; first compound 4 µM) |
| --- | --- | --- | --- | --- | --- | --- | --- | --- | --- | --- | --- | --- | --- | --- | --- | --- | --- | --- | --- | --- |
| NCI-H3122 | 1.03 | 0.953 | 1.02 | 1.08 | 1.1 | 1.05 | 1.01 | 0.964 | 1.03 | 1.1 | 1.01 | 0.978 | 0.924 | 0.755 | 0.695 | 0.19 | 0.248 | 0.201 | 0.219 | 0.184 |
| NCI-H2126 | 1.03 | 0.908 | 0.995 | 1 | 0.979 | 1 | 0.977 | 0.969 | 0.891 | 1.02 | 1.09 | 1.04 | 0.74 | 0.792 | 0.943 | 0.601 | 0.546 | 0.565 | 0.536 | 0.513 |
| NCI-H520 | 1 | 0.882 | 1.02 | 0.808 | 0.709 | 0.953 | 0.902 | 0.962 | 0.746 | 1.02 | 1.24 | 1.05 | 0.978 | 0.567 | 0.511 | 0.784 | 0.583 | 0.582 | 0.582 | 0.593 |
| LOU-NH91 | 0.914 | 0.738 | 0.981 | 0.912 | 1.21 | 0.894 | 0.954 | 0.963 | 0.839 | 1.01 | 1.08 | 0.854 | 0.664 | 0.454 | 0.523 | 0.782 | 0.768 | 0.789 | 0.727 | 0.817 |
| NCI-H1651 | 0.962 | 0.973 | 1.03 | 0.866 | 0.918 | 1.08 | 0.961 | 0.978 | 0.909 | 0.988 | 1.05 | 1.01 | 0.826 | 0.7 | 0.648 | 0.884 | 0.855 | 0.846 | 0.791 | 0.797 |
| NCI-H460 | 1.04 | 0.954 | 1.02 | 0.992 | 1.02 | 0.998 | 0.956 | 0.971 | 0.926 | 0.972 | 1.06 | 0.945 | 0.852 | 0.337 | 0.36 | 0.152 | 0.203 | 0.11 | 0.0864 | 0.0963 |
